According to PubChem BioAssay (NCI):
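Step 1: Grow cells in 96-well plates. Step 2: Expose to compound for 48 hours at 5 concentrations. Step 3: Interpolate endpoints linearly; if unreached, use highest concentration. The concentration for 50% growth inhibition is given as GI50. TGI denotes the concentration required for complete inhibition of growth.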

These compounds were tested on SW-620 colon (assay: NCI tumour cell line growth inhibition, 48 h).
In the case of `C#C[C@]1(O)CC[C@H]2[C@@H]3CC=C4c5nc(N)sc5CC[C@]4(C)[C@H]3CC[C@@]21C`, the GI50 is reported as 2.81 µM and the TGI is reported as 8.68 µM.
For `C1=CC2CCC1CN2CCC1CNc2ccccc21` (centres undefined), the TGI was greater than 100 µM.
Work on `O=CN1N=C(c2cccc(Nc3ccnc4cc(Cl)ccc34)c2)CC1c1ccc(Cl)cc1` (centres undefined) yielded a GI50 of 0.557 µM and a TGI greater than 100 µM.
In the case of `O=C1C(=O)C2(CC1S(=O)(=O)c1ccccc1)c1ccccc1-c1ccccc12` (centres undefined), the TGI is reported as 85.1 µM.
`Cc1ccc(S(=O)C(C)C(Cl)c2ccccc2)cc1` (centres undefined) gave a TGI greater than 100 µM.
`CN1CCc2ccccc2C(C(=O)c2ccc3c(c2)OCO3)C1=O` (centres undefined) showed a TGI greater than 100 µM.
With `Cc1cc(Cl)ccc1NC(=O)C1C(=O)N(c2ccc(Cl)cc2C)C(=O)/C1=N\NC(N)=S` (centres undefined) the TGI was greater than 100 µM.
In the case of `COc1ccc(C2=Nn3c(nnc3-n3nc(C)cc3C)SC2)cc1`, the GI50 is reported as 0.0423 µM and the TGI is reported as greater than 100 µM.
Compound `COc1cc(-c2nn(-c3cccc(NC(=O)CCNc4ccc(N5CCOCC5)cc4)c3)cc2-c2ccncc2)ccc1Cl` has a GI50 of 3.55 µM and a TGI greater than 100 µM.
Work on `COc1ccc(Br)c(C(=O)N2CCc3ccccc32)c1N` yielded a TGI greater than 100 µM.
Work on `COc1ccc(C)cc1NC(=S)C#N` yielded a TGI greater than 100 µM.
`CC(=O)Oc1cc2cnc3c4cc(OC(C)=O)c(OC(C)=O)cc4ccc3c2cc1OC(C)=O` showed a GI50 of 0.952 µM and a TGI greater than 100 µM.
With `Cc1ccc2ccc(-c3ccccc3)c3c2c1C(=O)c1ccccc1C3=O` the TGI was greater than 100 µM.
`OCC(O)C(O)C(O)c1nn(-c2ccc(F)cc2)c2nc3cc(Cl)c(Cl)cc3nc12` (centres undefined) gave a TGI greater than 100 µM.
`CCCCCC[C@H]1C(=O)O[C@H](C)[C@H](NC(=O)c2cccc(NC=O)c2OC)C(=O)O[C@@H](C)[C@@H]1OC(=O)CCC` (tested in a mixture with another compound) was tested, and the GI50 was 13 µM and the TGI was 72.3 µM.
`COc1ccc(C2Cc3cc(OC)c(OC)c(OC)c3C2)cc1` (centres undefined) was tested, and the TGI was greater than 100 µM.

The compounds below were run on NCI-H23 lung (assay: NCI tumour cell line growth inhibition, 48 h).
With `CS(=O)(=O)Nc1cc(-c2ccc3ncnc(Nc4cccc(Cl)c4)c3c2)cnc1Cl` the GI50 was 0.328 µM and the TGI was 10.6 µM.
In the case of `CN(C)c1ccc(C(O)C2=CC(=O)c3ccccc3C2=O)cc1` (centres undefined), the GI50 is reported as 27.2 µM and the TGI is reported as 97.5 µM.
`Clc1ccc(CN2CCCN(Cc3ccc(Cl)cc3)C2c2cc3ccccc3c3ccccc23)cc1` showed a TGI greater than 100 µM.
With `COc1ccc2c(c1OC)O/C(=C\c1ncc([N+](=O)[O-])n1C)C2=O` the GI50 was 1.3 µM and the TGI was 5.6 µM.
In the case of `COc1ccc(/C=C\c2cc(OC)c(OC)c(OC)c2)cc1`, the TGI is reported as 0.0118 µM.
Work on `COc1cc(N(C)C)c(OC)cc1C=C1C=CC=C1` yielded a TGI greater than 100 µM.
Work on `C[C@H]1CC[P+](C)(c2ccccc2)C1` (some centres undefined) yielded a TGI greater than 100 µM.
With `C=C1CC[C@H]2C(C)=CC[C@H]3C(=C)C(=O)O[C@@H]3[C@@H]12` the TGI was greater than 100 µM.
`COc1cc(OC)c2c(=O)c3cccc([N+](=O)[O-])c3n(C)c2c1` was tested, and the TGI was greater than 100 µM.
`COc1ccc(-c2csc(Nc3cccc(-c4csc(C)n4)c3)n2)cc1` gave a GI50 of 0.931 µM and a TGI of 10.1 µM.
With `COc1cc(/C=C2\SC(N3CCCCC3)=NC2=O)ccc1OCCCCCCOc1ccc(/C=C2\SC(N3CCCCC3)=NC2=O)cc1OC` the GI50 was 12.6 µM and the TGI was 40.9 µM.
In the case of `Cc1cc(C)nc(NS(=O)(=O)c2ccc(Nc3c4ccccc4nc4c(C(=O)NCCN(C)C)cccc34)cc2)n1`, the TGI is reported as 21.5 µM.
In the case of `CCOC1Oc2ccc(C)cc2C(=O)/C1=C\Nc1ccc(S(N)(=O)=O)cc1` (centres undefined), the GI50 is reported as 2.92 µM and the TGI is reported as 12.4 µM.
In the case of `Cc1cc(NN=C(c2ccc(O)cc2)c2ccc(O)cc2)c([N+](=O)[O-])cc1[N+](=O)[O-]`, the GI50 is reported as 3.8 µM and the TGI is reported as 47.3 µM.
Work on `COc1ccc(-c2c(N)noc2-c2cc(OC)c3c(c2)OCCO3)cc1` yielded a GI50 of less than 0.014 µM.
Compound `COc1ccc(-c2cc(/C=C/C(=O)c3ccc(N)cc3)[nH]n2)cc1` has a GI50 of 3.22 µM and a TGI of 13.1 µM.
With `CCOC(=O)c1c(NC(=O)c2ccc(Cl)cc2)sc2c(CN(C)C)c(O)ccc12` the GI50 was 14.6 µM and the TGI was 47.6 µM.
Work on `CCCCC1(C(NC(=O)c2ccccc2Cl)c2ccncc2)C(=O)N(c2ccccc2)N(c2ccccc2)C1=O` (centres undefined) yielded a TGI greater than 100 µM.
For `N#Cc1cc(S(=O)(=O)Nc2nc3cc(Cl)ccc3o2)c(SCc2ccccc2)cc1Cl`, the GI50 was 15.6 µM and the TGI was 28.9 µM.
For `C#C[C@]1(O)CC[C@H]2[C@@H]3CC=C4c5nc(N)sc5CC[C@]4(C)[C@H]3CC[C@@]21C`, the GI50 was 4.38 µM and the TGI was 24.3 µM.
In the case of `C1=CC2CCC1CN2CCC1CNc2ccccc21` (centres undefined), the TGI is reported as greater than 100 µM.
With `O=CN1N=C(c2cccc(Nc3ccnc4cc(Cl)ccc34)c2)CC1c1ccc(Cl)cc1` (centres undefined) the GI50 was 2.48 µM and the TGI was greater than 100 µM.
`O=C1C(=O)C2(CC1S(=O)(=O)c1ccccc1)c1ccccc1-c1ccccc12` (centres undefined) showed a TGI of 30.2 µM.
Compound `Cc1ccc(S(=O)C(C)C(Cl)c2ccccc2)cc1` (centres undefined) has a TGI greater than 100 µM.
`CN1CCc2ccccc2C(C(=O)c2ccc3c(c2)OCO3)C1=O` (centres undefined) showed a TGI greater than 100 µM.
With `Cc1cc(Cl)ccc1NC(=O)C1C(=O)N(c2ccc(Cl)cc2C)C(=O)/C1=N\NC(N)=S` (centres undefined) the TGI was 41.6 µM.
`COc1ccc(C2=Nn3c(nnc3-n3nc(C)cc3C)SC2)cc1` was tested, and the GI50 was 0.18 µM and the TGI was greater than 100 µM.
In the case of `COc1cc(-c2nn(-c3cccc(NC(=O)CCNc4ccc(N5CCOCC5)cc4)c3)cc2-c2ccncc2)ccc1Cl`, the GI50 is reported as 2.68 µM and the TGI is reported as 20.6 µM.
`COc1ccc(Br)c(C(=O)N2CCc3ccccc32)c1N` showed a TGI greater than 100 µM.
`COc1ccc(C)cc1NC(=S)C#N` gave a TGI greater than 100 µM.
`CC(=O)Oc1cc2cnc3c4cc(OC(C)=O)c(OC(C)=O)cc4ccc3c2cc1OC(C)=O` gave a GI50 of 2.54 µM and a TGI greater than 100 µM.
`Cc1ccc2ccc(-c3ccccc3)c3c2c1C(=O)c1ccccc1C3=O` showed a TGI greater than 100 µM.
`OCC(O)C(O)C(O)c1nn(-c2ccc(F)cc2)c2nc3cc(Cl)c(Cl)cc3nc12` (centres undefined) gave a TGI of 48 µM.
With `CCCCCC[C@H]1C(=O)O[C@H](C)[C@H](NC(=O)c2cccc(NC=O)c2OC)C(=O)O[C@@H](C)[C@@H]1OC(=O)CCC` (tested in a mixture with another compound) the GI50 was 9.53 µM and the TGI was 49.2 µM.
For `COc1ccc(C2Cc3cc(OC)c(OC)c(OC)c3C2)cc1` (centres undefined), the TGI was greater than 100 µM.

These compounds were tested on 786-0 renal (assay: NCI tumour cell line growth inhibition, 48 h).
`CS(=O)(=O)Nc1cc(-c2ccc3ncnc(Nc4cccc(Cl)c4)c3c2)cnc1Cl` gave a GI50 of 0.457 µM and a TGI of 7.01 µM.
Work on `CN(C)c1ccc(C(O)C2=CC(=O)c3ccccc3C2=O)cc1` (centres undefined) yielded a GI50 of 14.4 µM and a TGI of 34.6 µM.
Compound `Clc1ccc(CN2CCCN(Cc3ccc(Cl)cc3)C2c2cc3ccccc3c3ccccc23)cc1` has a TGI greater than 100 µM.
In the case of `COc1ccc2c(c1OC)O/C(=C\c1ncc([N+](=O)[O-])n1C)C2=O`, the GI50 is reported as 1.95 µM and the TGI is reported as 5.17 µM.
Compound `COc1ccc(/C=C\c2cc(OC)c(OC)c(OC)c2)cc1` has a TGI greater than 100 µM.
`COc1cc(N(C)C)c(OC)cc1C=C1C=CC=C1` was tested, and the TGI was greater than 100 µM.
`C[C@H]1CC[P+](C)(c2ccccc2)C1` (some centres undefined) gave a TGI greater than 100 µM.
Compound `C=C1CC[C@H]2C(C)=CC[C@H]3C(=C)C(=O)O[C@@H]3[C@@H]12` has a TGI greater than 100 µM.
`COc1cc(OC)c2c(=O)c3cccc([N+](=O)[O-])c3n(C)c2c1` gave a TGI greater than 100 µM.
With `COc1ccc(-c2csc(Nc3cccc(-c4csc(C)n4)c3)n2)cc1` the GI50 was 2.14 µM and the TGI was greater than 34.8 µM.
For `COc1cc(/C=C2\SC(N3CCCCC3)=NC2=O)ccc1OCCCCCCOc1ccc(/C=C2\SC(N3CCCCC3)=NC2=O)cc1OC`, the GI50 was 7.71 µM and the TGI was 27.8 µM.
`Cc1cc(C)nc(NS(=O)(=O)c2ccc(Nc3c4ccccc4nc4c(C(=O)NCCN(C)C)cccc34)cc2)n1` was tested, and the TGI was 25.2 µM.
`CCOC1Oc2ccc(C)cc2C(=O)/C1=C\Nc1ccc(S(N)(=O)=O)cc1` (centres undefined) was tested, and the GI50 was 6.88 µM and the TGI was 13.6 µM.
Work on `Cc1cc(NN=C(c2ccc(O)cc2)c2ccc(O)cc2)c([N+](=O)[O-])cc1[N+](=O)[O-]` yielded a GI50 of 5.39 µM and a TGI of 22.1 µM.
Work on `COc1ccc(-c2c(N)noc2-c2cc(OC)c3c(c2)OCCO3)cc1` yielded a GI50 of less than 0.012 µM.
Work on `COc1ccc(-c2cc(/C=C/C(=O)c3ccc(N)cc3)[nH]n2)cc1` yielded a GI50 of 2.12 µM and a TGI of 5.69 µM.
`CCOC(=O)c1c(NC(=O)c2ccc(Cl)cc2)sc2c(CN(C)C)c(O)ccc12` showed a GI50 of 5.54 µM and a TGI of 20.7 µM.
For `CCCCC1(C(NC(=O)c2ccccc2Cl)c2ccncc2)C(=O)N(c2ccccc2)N(c2ccccc2)C1=O` (centres undefined), the TGI was greater than 100 µM.
`N#Cc1cc(S(=O)(=O)Nc2nc3cc(Cl)ccc3o2)c(SCc2ccccc2)cc1Cl` gave a GI50 of 15.7 µM and a TGI of 29.1 µM.
`C#C[C@]1(O)CC[C@H]2[C@@H]3CC=C4c5nc(N)sc5CC[C@]4(C)[C@H]3CC[C@@]21C` gave a GI50 of 2.06 µM and a TGI of 4.41 µM.
`C1=CC2CCC1CN2CCC1CNc2ccccc21` (centres undefined) was tested, and the TGI was greater than 100 µM.
In the case of `O=CN1N=C(c2cccc(Nc3ccnc4cc(Cl)ccc34)c2)CC1c1ccc(Cl)cc1` (centres undefined), the GI50 is reported as 4.73 µM and the TGI is reported as greater than 100 µM.
With `O=C1C(=O)C2(CC1S(=O)(=O)c1ccccc1)c1ccccc1-c1ccccc12` (centres undefined) the TGI was 82.5 µM.
`Cc1ccc(S(=O)C(C)C(Cl)c2ccccc2)cc1` (centres undefined) gave a TGI greater than 100 µM.
